# Like-named read-outs stand apart in the source and are kept apart here.
# Assays:
# [1] = system: P. falciparum strain 3D7-Netherlands; assay: In vitro IC50, 3H-hypoxanthine incorporation, P. falciparum 3D7; type: cell-based, Plasmodium falciparum; conditions: for IC50: Plasmodium falciparum, P. falciparum strain 3D7; for in vitro activity in words: compared with compound 1
# L929 = assay: Antiproliferative activity L929; type: cell-based; conditions: Mus musculus, read-out: IC50 [μg/ml] Antiproliferative activity L929
# Cytotoxicity HeLa = conditions: human, HeLa cells
# K562 = assay: Antiproliferative activity K562; type: cell-based; conditions: Homo sapiens, read-out: IC50 [μg/ml] Antiproliferative activity K562
# [2] = system: Plasmodium berghei GFP MRA-865; assay: Plasmodium berghei infection in the mouse model (in vivo); conditions: ip 3 × 10 mg/kg
# [3] = read-out: IC50 [ng/ml] P.f.(3D7)
smiles,measurement,setting,value
"COc1ccc2c(c1)CCC1C2CC[C@]2(C)C[C@@H](NCc3ccccc3O)CC12 (stereo partly drawn) [Compound 3, 16β-(2-Hydroxyphenyl-methylamino)-3-methoxy-estra-1,3,5(10)-triene]",IC50,[1]; read-out: IC50 [nM] P.f.(3D7),62 nM
same,IC50,[1]; [3],24.5 ng/mL
same,in vitro activity in words,[1],comparable activity
same,IC50,L929,1.9 µg/mL
same,IC50,Cytotoxicity HeLa,4.4 µg/mL
same,IC50,K562,0.7 µg/mL
"COc1ccc2c(c1)CCC1C2CC[C@]2(C)C[C@H](NCc3ccccc3O)CC12 (stereo partly drawn) [Compound 4, 16α-(2-Hydroxyphenyl-methylamino)-3-methoxy-estra-1,3,5(10)-triene]",IC50,[1]; read-out: IC50 [nM] P.f.(3D7),41.5 nM
same,IC50,[1]; [3],16.4 ng/mL
same,in vitro activity in words,[1],comparable activity
same,IC50,L929,1.6 µg/mL
same,IC50,Cytotoxicity HeLa,4.7 µg/mL
same,IC50,K562,1.3 µg/mL
"COc1ccc2c(c1)CCC1C2CC[C@@]2(C)C1CC[C@H]2NCc1ccccc1OC (stereo partly drawn) [Compound 5, 17α-(2-Methoxyphenyl-methylamino)-3-methoxy-estra-1,3,5(10)-triene]",IC50,[1]; read-out: IC50 [nM] P.f.(3D7),879 nM
same,IC50,[1]; [3],578 ng/mL
"COc1ccc2c(c1)CCC1C2CC[C@@]2(C)C1CC[C@H]2NCc1cccc(O)c1 (stereo partly drawn) [Compound 6, 17α-(3-Hydroxyphenyl-methylamino)-3-methoxy-estra-1,3,5(10)-triene]",IC50,[1]; read-out: IC50 [nM] P.f.(3D7),440 nM
same,IC50,[1]; [3],172 ng/mL
COc1ccc2c(c1)CCC1C2CC[C@@]2(C)C1CC[C@H]2NCc1ccc(O)cc1 (stereo partly drawn) [Compound 7],IC50,[1]; read-out: IC50 [nM] P.f.(3D7),115 nM
same,IC50,[1]; [3],45 ng/mL
"COc1ccc2c(c1)CCC1C2CC[C@@]2(C)C1CC[C@H]2NCc1c(O)ccc2ccccc12 (stereo partly drawn) [Compound 17, 17α-[(2-Hydroxynaphth-1-yl)-methylamino]-3-methoxy-estra-1,3,5(10)-triene]",IC50,[1]; read-out: IC50 [nM] P.f.(3D7),72.8 nM
same,IC50,[1]; [3],32.1 ng/mL
"COc1ccc2c(c1)CCC1C2CC[C@@]2(C)C1CC[C@@H]2NCc1c(O)ccc2ccccc12 (stereo partly drawn) [Compound 19, 17β-[(2-Hydroxynaphth-1-yl)-methylamino]-3-methoxy-estra-1,3,5(10)-triene hydroperchlorate]",IC50,[1]; read-out: IC50 [nM] P.f.(3D7),182 nM
same,IC50,[1]; [3],98.6 ng/mL
"COc1ccc2c(c1)CCC1C2CC[C@@]2(C)C1CC[C@@H]2NCc1cccc(O)c1 (stereo partly drawn) [Compound 20, 17β-(3-Hydroxyphenyl-methylamino)-3-methoxy-estra-1,3,5(10)-triene]",IC50,[1]; read-out: IC50 [nM] P.f.(3D7),733 nM
same,IC50,[1]; [3],287 ng/mL
"CCN(CC)c1ccc(CN[C@H]2CCC3C4CCc5cc(OC)ccc5C4CC[C@@]32C)c(O)c1 (stereo partly drawn) [Compound 23, 17β-[4-(N,N-Diethylamino)-2-hydroxyphenyl-methylamino]-3-methoxy-estra-1,3,5(10)-triene]",IC50,[1]; read-out: IC50 [nM] P.f.(3D7),716 nM
same,IC50,[1]; [3],331 ng/mL
"COc1ccc2c(c1)CC[C@@H]1[C@@H]2CC[C@]2(C)[C@@H](O)[C@H](N(C)c3cc4ccccc4cc3O)C[C@@H]12 [Compound 32, 16α-[(3-Hydroxy-naphth-2-yl)-methylamino]-17β-hydroxy-3-methoxy-estra-1,3,5(10)-triene]",IC50,[1]; read-out: IC50 [nM] P.f.(3D7),29.9 nM
same,IC50,[1]; [3],13.7 ng/mL
"COc1ccc2c(c1)CC[C@@H]1[C@@H]2CC[C@]2(C)[C@H](O)[C@H](N(C)c3cc4ccccc4cc3O)C[C@@H]12 [Compound 36, 16α-[(3-Hydroxy-naphth-2-yl)-methylamino]-17α-hydroxy-3-methoxy-estra-1,3,5(10)-triene]",IC50,[1]; read-out: IC50 [nM] P.f.(3D7),42.1 nM
same,IC50,[1]; [3],19.3 ng/mL
"COc1ccc2c(c1)CCC1C2CC[C@@]2(C)C1C[C@H](NCc1ccccc1O)[C@@H]2O (stereo partly drawn) [Compound 42, 16β-(2-Hydroxyphenyl-methylamino)-17β-hydroxy-3-methoxy-estra-1,3,5(10)-triene]",IC50,[1]; read-out: IC50 [nM] P.f.(3D7),227 nM
same,IC50,[1]; [3],91.3 ng/mL
"COc1ccc2c(c1)CCC1C2CC[C@@]2(C)C1C[C@@H](NCc1ccccc1O)[C@@H]2O (stereo partly drawn) [Compound 43, 16α-(2-Hydroxyphenyl-methylamino)-17β-hydroxy-3-methoxy-estra-1,3,5(10)-triene]",IC50,[1]; read-out: IC50 [nM] P.f.(3D7),58.5 nM
same,IC50,[1]; [3],23.9 ng/mL
same,IC50,L929,2 µg/mL
same,IC50,Cytotoxicity HeLa,7.7 µg/mL
same,IC50,K562,1.2 µg/mL
"COc1ccc2c(c1)CCC1C2CC[C@@]2(C)C1C[C@H](NCc1ccccc1O)[C@H]2O (stereo partly drawn) [Compound 44, 16β-(2-Hydroxyphenyl-methylamino)-17α-hydroxy-3-methoxy-estra-1,3,5(10)-triene]",IC50,[1]; read-out: IC50 [nM] P.f.(3D7),676 nM
same,IC50,[1]; [3],275 ng/mL
same,IC50,L929,2.5 µg/mL
same,IC50,Cytotoxicity HeLa,3.4 µg/mL
same,IC50,K562,0.85 µg/mL
"COc1ccc2c(c1)CCC1C2CC[C@@]2(C)C1C[C@@H](NCc1ccccc1O)[C@H]2O (stereo partly drawn) [Compound 45, 16α-(2-Hydroxyphenyl-methylamino)-17α-hydroxy-3-methoxy-estra-1,3,5(10)-triene]",IC50,[1]; read-out: IC50 [nM] P.f.(3D7),101 nM
same,IC50,[1]; [3],41 ng/mL
"COc1ccc2c(c1)CCC1C2CC[C@]2(C)C1C[C@H](NCc1ccccc1O)[C@@H]2O (stereo partly drawn) [Compound 47, 16β-(2-Hydroxyphenyl-methylamino)-17β-hydroxy-3-methoxy-13α-estra-1,3,5(10)-triene]",IC50,[1]; read-out: IC50 [nM] P.f.(3D7),140 nM
same,IC50,[1]; [3],57.3 ng/mL
"COc1ccc2c(c1)CCC1C2CC[C@]2(C)C1C[C@@H](NCc1ccccc1O)[C@@H]2O (stereo partly drawn) [Compound 48, 16α-(2-Hydroxyphenyl-methylamino)-17β-hydroxy-3-methoxy-13α-estra-1,3,5(10)-triene]",IC50,[1]; read-out: IC50 [nM] P.f.(3D7),83.3 nM
same,IC50,[1]; [3],34 ng/mL
"COc1ccc2c(c1)CCC1C2CC[C@@]2(C)C1C[C@H](NCc1cc(C(C)(C)C)cc(C(C)(C)C)c1O)[C@H]2O (stereo partly drawn) [Ref 1, 16β-(2-Hydroxy-3,5-di-tert-butylphenyl-methylamino)-17α-hydroxy-3-methoxy-estra-1,3,5(10)-triene, reference compound]",IC50,[1]; read-out: IC50 [nM] P.f.(3D7),1610 nM
same,IC50,[1]; [3],836 ng/mL
"CCN(CC)CCCC(C)Nc1ccnc2cc(Cl)ccc12 (stereo not drawn) [chloroquine, reference compound]",MSD chloroquine ip 3 × 10 mg/kg,[2],13.6 days
